Data: PubChem BioAssay AID328 (DTP/NCI, 2004)
Where “and” joins values, the source holds several entries; their conditions need not be identical. Identical values can stand only once. Inconclusive results and toxic doses are left out.

Tested on: BDF1 mice, P388 leukemia ip, median survival T/C
Test: NCI In Vivo Anticancer Drug Screen. Data for tumor model P388 Leukemia (intraperitoneal) in B6D2F1 (BDF1) mice
Details: endpoint: median survival time, higher = longer survival
Summary of the method: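 Each value expresses how treatment altered survival: treated-mouse outcome over vehicle-mouse outcome, both groups bearing the transplanted tumour.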

[1] = dose: 12.5 mg/kg/injection, schedule: Q04DX003 (ip), vehicle: saline
[2] = dose: 25.0 mg/kg/injection, schedule: Q04DX003 (ip), vehicle: saline
[3] = dose: 50.0 mg/kg/injection, schedule: Q04DX003 (ip), vehicle: saline
[4] = dose: 50.0 mg/kg/injection, schedule: Q01DX009 (ip), vehicle: saline with Tween-80
[5] = dose: 100.0 mg/kg/injection, schedule: Q01DX009 (ip), vehicle: saline with Tween-80
[6] = dose: 200.0 mg/kg/injection, schedule: Q01DX009 (ip), vehicle: saline with Tween-80
[7] = dose: 100.0 mg/kg/injection, schedule: Q04DX003 (ip), vehicle: saline
[8] = dose: 100.0 mg/kg/injection, schedule: Q01DX009 (ip), vehicle: saline
[9] = dose: 200.0 mg/kg/injection, schedule: Q01DX009 (ip), vehicle: saline
[10] = dose: 200.0 mg/kg/injection, schedule: Q04DX003 (ip), vehicle: saline
[11] = dose: 400.0 mg/kg/injection, schedule: Q04DX003 (ip), vehicle: saline
[12] = dose: 20.0 mg/kg/injection, schedule: Q04DX003 (ip), vehicle: saline with Tween-80
[13] = dose: 40.0 mg/kg/injection, schedule: Q04DX003 (ip), vehicle: saline with Tween-80
[14] = dose: 80.0 mg/kg/injection, schedule: Q04DX003 (ip), vehicle: saline with Tween-80
[15] = dose: 25.0 mg/kg/injection, schedule: Q01DX009 (ip), vehicle: saline with Tween-80
[16] = dose: 75.0 mg/kg/injection, schedule: Q01DX009 (ip), vehicle: saline with Tween-80
[17] = dose: 100.0 mg/kg/injection, schedule: Q04DX003 (ip), vehicle: saline with Tween-80
[18] = dose: 200.0 mg/kg/injection, schedule: Q04DX003 (ip), vehicle: saline with Tween-80
[19] = dose: 400.0 mg/kg/injection, schedule: Q01DX009 (ip), vehicle: saline with Tween-80
[20] = dose: 400.0 mg/kg/injection, schedule: Q04DX003 (ip), vehicle: saline with Tween-80
[21] = dose: 150.0 mg/kg/injection, schedule: Q04DX003 (ip), vehicle: saline
[22] = dose: 100.0 mg/kg/injection, schedule: Q04DX003 (ip), vehicle: Klucel (hydroxypropylcellulose) (HPC)
[23] = dose: 200.0 mg/kg/injection, schedule: Q04DX003 (ip), vehicle: Klucel (hydroxypropylcellulose) (HPC)
[24] = dose: 400.0 mg/kg/injection, schedule: Q04DX003 (ip), vehicle: Klucel (hydroxypropylcellulose) (HPC)

OCCNCCN1CCN(CCCN2c3ccccc3Sc3ccc(C(F)(F)F)cc32)CC1
T/C (dose: 6.25 mg/kg/injection, schedule: Q04DX003 (ip), vehicle: saline): 104 % of control | T/C [1]: 110 % of control | T/C [2]: 91 % of control and 110 % of control | T/C [3]: 91 % of control

COC(=O)C1=COC(C)C2CN3CCc4c([nH]c5ccccc45)C3CC12 (stereo not drawn)
T/C (dose: 20.0 mg/kg/injection, schedule: Q01DX010 (ip), vehicle: saline): 90 % of control | T/C (dose: 40.0 mg/kg/injection, schedule: Q01DX010 (ip), vehicle: saline): 90 % of control | T/C (dose: 160.0 mg/kg/injection, schedule: Q01DX010 (ip), vehicle: saline): 90 % of control

CC1SCC(=O)N1c1nccs1 (stereo not drawn)
T/C [4]: 99 % of control | T/C [5]: 100 % of control | T/C [6]: 102 % of control

COc1ccc2c(c1)CCNC2CCO (stereo not drawn)
T/C [2]: 120 % of control | T/C [3]: 110 % of control | T/C [7]: 120 % of control

CC(N)C(=O)NCC(=O)NCC(=O)O (stereo not drawn)
T/C [8]: 95 % of control | T/C [7]: 104 % of control | T/C [9]: 104 % of control | T/C [10]: 95 % of control | T/C (dose: 400.0 mg/kg/injection, schedule: Q01DX009 (ip), vehicle: saline): 100 % of control | T/C [11]: 95 % of control

ClC1=C(Cl)C(Cl)=C(Cl)C1=NN=C1C(Cl)=C(Cl)C(Cl)=C1Cl
T/C (dose: 50.0 mg/kg/injection, schedule: Q01DX001 (ip), vehicle: saline with Tween-80): 100 % of control | T/C (dose: 100.0 mg/kg/injection, schedule: Q01DX001 (ip), vehicle: saline with Tween-80): 95 % of control | T/C (dose: 200.0 mg/kg/injection, schedule: Q01DX001 (ip), vehicle: saline with Tween-80): 90 % of control

C1CC[N-]CC1.C1CC[N-]CC1.C1CC[N-]CC1.C1CC[N-]CC1.[Cl][Rh][Cl]
T/C [1]: 118 % of control

CC(C)=CCNc1ncnc2nc[nH]c12
T/C (dose: 10.0 mg/kg/injection, schedule: Q01DX009 (ip), vehicle: saline with Tween-80): 104 % of control | T/C (dose: 20.0 mg/kg/injection, schedule: Q01DX009 (ip), vehicle: saline with Tween-80): 104 % of control | T/C [12]: 95 % of control | T/C [13]: 95 % of control | T/C [14]: 100 % of control

NC(=S)N/N=C\c1nccc2c(N)cccc12
T/C (dose: 6.25 mg/kg/injection, schedule: Q01DX009 (ip), vehicle: saline with Tween-80): 186 % of control | T/C (dose: 12.5 mg/kg/injection, schedule: Q01DX009 (ip), vehicle: saline with Tween-80): 191 % of control | T/C [15]: 195 % of control | T/C [4]: 91 % of control | T/C [16]: 89 % of control

CCOC(=O)/C=C(\C)Nc1cccc([N+](=O)[O-])c1
T/C (dose: 25.0 mg/kg/injection, schedule: Q01DX009 (ip), vehicle: other): 110 % of control | T/C (dose: 50.0 mg/kg/injection, schedule: Q01DX009 (ip), vehicle: other): 93 % of control | T/C (dose: 100.0 mg/kg/injection, schedule: Q01DX009 (ip), vehicle: other): 100 % of control | T/C (dose: 200.0 mg/kg/injection, schedule: Q01DX009 (ip), vehicle: other): 110 % of control | T/C (dose: 400.0 mg/kg/injection, schedule: Q01DX009 (ip), vehicle: other): 116 % of control

COCCn1c2nc(=O)n(-c3ccccc3)c(=O)c-2nc2c1CCCC2
T/C [15]: 103 % of control | T/C [4]: 97 % of control and 112 % of control | T/C [5]: 113 % of control and 124 % of control | T/C [6]: 110 % of control

CC1(c2cccc(N)c2)OCCO1
T/C [5]: 100 % of control | T/C [17]: 90 % of control | T/C [6]: 95 % of control | T/C [18]: 109 % of control | T/C [19]: 90 % of control | T/C [20]: 109 % of control

CC(C)(C)C1=CC(C(C)(C)C)CCC1=O (stereo not drawn)
T/C (dose: 50.0 mg/kg/injection, schedule: Q01DX009 (ip), vehicle: saline): 86 % of control | T/C (dose: 75.0 mg/kg/injection, schedule: Q04DX003 (ip), vehicle: saline): 110 % of control | T/C [8]: 109 % of control | T/C [21]: 110 % of control | T/C [9]: 118 % of control | T/C (dose: 300.0 mg/kg/injection, schedule: Q04DX003 (ip), vehicle: saline): 120 % of control

O=C1CC(SC(=S)C2CCCC2=O)C(=O)N1 (stereo not drawn)
T/C [4]: 100 % of control | T/C [5]: 110 % of control | T/C [6]: 89 % of control

N#CN(Cc1ccc(Cl)cc1Cl)C(=O)OCOc1ccc(Cl)cc1
T/C [17]: 100 % of control | T/C [18]: 90 % of control | T/C [20]: 109 % of control

O=CN1CCN(c2ccc([N+](=O)[O-])c3nonc23)CC1
T/C (dose: 15.0 mg/kg/injection, schedule: Q01DX009 (ip), vehicle: saline with Tween-80): 103 % of control | T/C [12]: 100 % of control | T/C (dose: 30.0 mg/kg/injection, schedule: Q01DX009 (ip), vehicle: saline with Tween-80): 100 % of control | T/C [13]: 99 % of control | T/C [14]: 95 % of control

CCc1nc2ccccc2c(=O)n1C
T/C [4]: 101 % of control | T/C [6]: 101 % of control

CSc1nc2c(N)nc(N)nc2nc1C
T/C [17]: 100 % of control | T/C [18]: 108 % of control | T/C [20]: 108 % of control

Cc1ccc(C(=O)O)c(=O)[nH]1
T/C [4]: 98 % of control | T/C [5]: 95 % of control | T/C [6]: 100 % of control | T/C [19]: 94 % of control

CCSc1nc(C(OC)OC)c(Cc2ccccc2)c(=O)[nH]1
T/C [22]: 90 % of control | T/C [23]: 90 % of control | T/C [24]: 90 % of control

CC(=O)OC(=O)C(Cc1ccccc1)NC(=O)C(N)CCCN=C(N)N (stereo not drawn)
T/C (dose: 50.0 mg/kg/injection, schedule: Q01DX005 (ip), vehicle: saline with Tween-80): 98 % of control | T/C (dose: 100.0 mg/kg/injection, schedule: Q01DX005 (ip), vehicle: saline with Tween-80): 103 % of control

O=S1(=O)CC(O)C(Cl)C1 (stereo not drawn)
T/C (dose: 100.0 mg/kg/injection, schedule: Q01DX001 (ip), vehicle: saline): 104 % of control | T/C [22]: 100 % of control | T/C (dose: 200.0 mg/kg/injection, schedule: Q01DX001 (ip), vehicle: saline): 100 % of control | T/C [23]: 100 % of control | T/C [24]: 100 % of control

COc1ccc(/C=C/c2ccnc3ccccc23)cc1
T/C [5]: 93 % of control | T/C [6]: 111 % of control | T/C [19]: 93 % of control

CC1CCN(SSc2nc3ccccc3s2)CC1
T/C [4]: 110 % of control | T/C [5]: 110 % of control

Nc1ccn([C@@H](C=O)O[C@@H](C=O)CO)c(=O)n1
T/C (dose: 8.8 mg/kg/injection, schedule: Q01DX009 (ip), vehicle: saline): 115 % of control | T/C (dose: 66.0 mg/kg/injection, schedule: Q04DX003 (ip), vehicle: saline): 100 % of control | T/C [7]: 112 % of control | T/C [21]: 120 % of control | T/C [10]: 150 % of control | T/C [11]: 181 % of control

NC(=O)NC1C(c2ccccc2)=NOC1C(N)=O (stereo not drawn)
T/C (dose: 100.0 mg/kg/injection, schedule: Q01DX009 (ip), vehicle: Klucel (hydroxypropylcellulose) (HPC)): 105 % of control | T/C (dose: 200.0 mg/kg/injection, schedule: Q01DX009 (ip), vehicle: Klucel (hydroxypropylcellulose) (HPC)): 100 % of control

CCOC(=O)c1c/c(=C(\C)O)c(=O)n2c1nc1ccccc12
T/C (dose: 100.0 mg/kg/injection, schedule: Q04DX002 (ip), vehicle: saline with Tween-80): 100 % of control | T/C (dose: 200.0 mg/kg/injection, schedule: Q04DX002 (ip), vehicle: saline with Tween-80): 87 % of control | T/C (dose: 400.0 mg/kg/injection, schedule: Q04DX002 (ip), vehicle: saline with Tween-80): 103 % of control

CCC(=O)N(c1ccccc1)c1ccccc1
T/C [16]: 99 % of control | T/C (dose: 150.0 mg/kg/injection, schedule: Q01DX009 (ip), vehicle: saline with Tween-80): 100 % of control | T/C (dose: 300.0 mg/kg/injection, schedule: Q01DX009 (ip), vehicle: saline with Tween-80): 108 % of control
